Results published in BindingDB's records for doi:10.1124/jpet.302.2.687 (University of Kentucky, 2002).
Structures can show the parent of a compound that is named as a salt.

Molecular target: Nicotinic acetylcholine receptor (Rattus leucopus, UniProt Q62594)
Sequence (Q62594 whole entry): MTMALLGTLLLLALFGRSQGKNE

## CC(NC(C)(C)C)C(=O)c1cccc(Cl)c1 (stereo unspecified) [BUPROPION HYDROCHLORIDE]
  Ki: > 10 µM
